Assay: Water uptake experiments (Dynamic Vapor Sorption water sorption/desorption isotherms)
Type: physicochemical
Conditions: for hygroscopicity (in words): crystalline form
Method: Water sorption experiments are performed on a Dynamic Vapor Sorption (DVS) apparatus (DVS-1000 manufactured by Surface Measurements Systems, Inc.). Experiments are performed at 25° C. by initially drying the material of interest (about 10 mg sample) from 30% relative humidity (RH) (ambient room condition) to about […] in a stepwise fashion (10% RH step) by purging with dry nitrogen until no further weight change was observed. The samples are then exposed to a stepwise (10% RH steps) increase in RH from about 0 to about 90% RH. Each successive step is initiated when the change in weight over time at the relative humidity was less than 0.0003% ((dm/dt)/m0×100, where m is mass in mg, m0 is initial mass, and t is time in minutes). The sample is then taken through the reverse of the stepwise % RH increase. The data are collected on a computer and analyzed using SMS′ proprietary MS-Excel macro interface software.

Compound | hygroscopicity (in words) | hygroscopicity (in words) (listed as form II) | weight gain of a dry sample (% of its own weight) when equilibrated under humid air (dry sample, equilibrated under 80% relative humidity (RH) air at 25° C.)
CCCCC1(CCCC)CS(=O)(=O)c2ccc(N(C)C)cc2[C@@H](c2ccc(OCc3ccc(C[N+]45CCN(CC4)CC5)cc3)cc2)[C@H]1O.[Cl-] [Form I, (4R,5R)-1-((4-(4-(3,3-dibutyl-7-(dimethylamino)-2,3,4,5-tetrahydro-4-hydroxy-1,1-dioxido-1-benzithiepin-5-yl)phenoxy)methyl)phenyl)methyl-4-aza-1-azoniabicyclo[2.2.2]octane Chloride] | hygroscopic |  | 
CCCCC1(CCCC)CS(=O)(=O)c2ccc(N(C)C)cc2[C@@H](c2ccc(OCc3ccc(C[N+]45CCN(CC4)CC5)cc3)cc2)[C@H]1O.[Cl-] [Form II, (4R,5R)-1-((4-(4-(3,3-dibutyl-7-(dimethylamino)-2,3,4,5-tetrahydro-4-hydroxy-1,1-dioxido-1-benzithiepin-5-yl)phenoxy)methyl)phenyl)methyl-4-aza-1-azoniabicyclo[2.2.2]octane Chloride] | essentially nonhygroscopic | essentially non-hygroscopic | less than 1%

— patent publication US20030199515A1, “Method for the preparation of crystalline tetrahydrobenzothiepines” (G.D. SEARLE, LLC, priority 2001, published 2003)
